Test [1] concerns the target T1, LecBPAO1 (Pseudomonas aeruginosa, UniProt Q9HYN5).
T1 construct: made in house
Description: biochemical. The format is binding.

Test [2] deals with T2, LecBPA14 (Pseudomonas aeruginosa, UniProt A0A0H2ZE85). Description: biochemical. The format is binding, Pseudomonas aeruginosa UCBPP-PA14. As for the experimental part: The measured intensities were reduced by buffer values and fluorescence polarization was calculated. The data were analyzed using BMG Labtech MARS software and/or with Graphpad Prism and fitted according to the four parameter variable slope model. […] A minimum of three independent measurements of triplicates each was performed for every ligand.

In test [3] the target is T1, LecBPAO1. The experiment in a line: Microcalorimetric assay (ITC) for direct binding. The conditions noted are these: for N: ITC binding stoichiometry, one site binding model; for N / ΔH / −TΔS / ΔG: LecBPAO1; for ΔH / −TΔS / ΔG: ITC, 25° C. On the procedure:
(§1) The temperature of the sample cell was 25° C. The titration was performed with a solution of ligands in the same buffer.

Test [4] addresses T2, LecBPA14. Description: biochemical. The test is classed as binding, Pseudomonas aeruginosa UCBPP-PA14. The conditions noted are these: for N: ITC binding stoichiometry, one site binding model; for N / ΔG / ΔH / −TΔS: LecBPA14; for ΔG / ΔH / −TΔS: ITC, 25° C. As for the experimental part: as §1
For test [5], the target named is LecB (Pseudomonas aeruginosa, UniProt Q9HYN5). The conditions noted are these: background art; cited from earlier work.

Molecules are shown by their SMILES.

The IC50 is the midpoint of a concentration-inhibition curve. In general, Kd refers to the concentration at which binding is half-saturated.

T1 sequence (Q9HYN5 entry or part of it): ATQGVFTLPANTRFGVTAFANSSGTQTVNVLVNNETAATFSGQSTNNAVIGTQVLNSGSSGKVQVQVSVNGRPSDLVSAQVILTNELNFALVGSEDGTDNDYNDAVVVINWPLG
T2 sequence (A0A0H2ZE85 entry or part of it): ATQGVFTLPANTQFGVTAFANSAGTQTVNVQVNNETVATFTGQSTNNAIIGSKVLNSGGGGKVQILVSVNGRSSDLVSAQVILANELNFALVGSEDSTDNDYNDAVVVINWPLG
Chain of LecB (Q9HYN5 entry or part of it): as the sequence (Q9HYN5 entry or part of it) above

Consider `CC1OCC(O)C(O)[C@@]1(O)c1ccccc1` (stereo partly drawn) [1-deoxy-4(S)—C-(phenyl) L-fucose], for which the IC50 came out at 4.97 ± 0.36 µM in test [1] and 1480 ± 80 nM in test [2].

For the compound `CC1O[C@H](CNS(=O)(=O)c2ccco2)C(O)C(O)[C@@H]1O` (some centres unmarked), the 50% inhibitory concentration (IC50) in test [1] was 3.48 ± 0.75 µM; in test [2], 480 ± 10 nM.

For `CC1O[C@H](CNC(=O)c2cc3ccccc3o2)C(O)C(O)[C@@H]1O` (some centres unmarked), the IC50 in test [1] is 10.2 ± 0.86 µM; in test [2] it was 2560 ± 330 nM.

For `CC1O[C@H](CNS(=O)(=O)c2cccs2)C(O)C(O)[C@@H]1O` (some centres unmarked), in test [3], the N was found to be 0.92 ± 0.05, the “ΔH” value is -48.1 ± 0.40 kJ/mol and the “−TΔS” value was found to be 13.4 ± 0.14 kJ/mol. In addition, in test [4], the N was 0.87 ± 0.08, the “ΔG” value is -37.3 ± 0.29 kJ/mol, the “ΔH” value is -50.0 ± 2.58 kJ/mol and the “−TΔS” value was 12.7 ± 2.70 kJ/mol.

On to `CC[C@@]1(O)C(C)OCC(O)C1O` (some centres unmarked) [drawing 116], for which, in test [3], the Kd was 201 ± 42 nM, the N was 1.03 ± 0.13, the “ΔG” value is -38.2 ± 0.54 kJ/mol and the “ΔH” value is -51.7 ± 4.54 kJ/mol. For the same compound, in test [3], the “−TΔS” value worked out at 13.4 ± 4.69 kJ/mol. In test [4], binding was characterised by a dissociation constant (Kd) of 130 ± 49 nM, the N was determined as 0.96 ± 0.04, the “ΔG” value was -39.4 ± 0.87 kJ/mol and the “ΔH” value was -42.0 ± 1.16 kJ/mol. In addition, the “−TΔS” value in test [4] came out at 2.59 ± 1.10 kJ/mol.

On to `CC(C)CC[C@@]1(O)C(C)OCC(O)C1O` (stereo partly drawn) [1-deoxy-4(S)—C-(isopentyl) L-fucose], for which the figures for the IC50 in test [1] and in test [2] were 0.78 ± 0.09 µM and 450 ± 120 nM, respectively.

For the compound `CC1OCC(O)C(O)[C@@H]1O` (stereo partly drawn) [drawing 115, 1-deoxy-L-fucose, reference compound], in test [3], the Kd came to 773 ± 110 nM, the N was 1.07 ± 0.03, the “ΔG” value was -34.9 ± 0.35 kJ/mol and the “ΔH” value is -36.3 ± 0.91 kJ/mol. The “−TΔS” value in test [3] is recorded as 1.37 ± 1.14 kJ/mol. Also, in test [4], the Kd amounted to 453 ± 120 nM, the N came to 0.94 ± 0.04, the “ΔG” value was -36.3 ± 0.64 kJ/mol and the “ΔH” value is -31.7 ± 1.09 kJ/mol. Further, the “−TΔS” value in test [4] was -4.61 ± 1.67 kJ/mol.

`CC(=O)NCC[C@@]1(O)C(C)OCC(O)C1O` (stereo partly drawn) [1-deoxy-4(R)—C-(ethylacetamide) L-fucose]: the IC50 in test [1] was 0.52 ± 0.03 µM; in test [2] it was 180 ± 20 nM.

For `CC1O[C@H](CNS(=O)(=O)c2ccc(Br)s2)C(O)C(O)[C@@H]1O` (some centres unmarked), the figures for the IC50 in test [1] and in test [2] were 3.2 ± 0.37 µM and 620 ± 390 nM, respectively.

On to `CC1O[C@H](CNS(=O)(=O)c2ccn(C)n2)C(O)C(O)[C@@H]1O` (some centres unmarked), for which the IC50 in test [1] was found to be 6.79 ± 1.81 µM; in test [2] it was 700 ± 30 nM.

With `CC1OCC(O)C(O)[C@@]1(O)CCNS(C)(=O)=O` (stereo partly drawn) [1-deoxy-4(R)—C-(ethylmethylsulfonamide) L-fucose], the IC50 in test [1] came out at 0.44 ± 0.07 µM; in test [2], 150 ± 20 nM.

Take `CC1O[C@H](CNS(=O)(=O)c2cn(C)cn2)C(O)C(O)[C@@H]1O` (some centres unmarked): the IC50 turned out to be 14.2 ± 3.57 µM in test [1] and 1860 ± 230 nM in test [2].

As to `CC1O[C@H](CNC(=O)c2ccccc2)C(O)C(O)[C@@H]1O` (some centres unmarked), in test [1], the IC50 is 8.73 ± 0.6 µM.

For `CC[C@@]1(O)C(C)OCC(O)C1O` (stereo partly drawn) [drawing 82, 1-deoxy-4(S)—C-(ethyl) L-fucose], the IC50 in test [1] is 0.39 ± 0.06 µM; in test [2], 140 ± 30 nM.

Regarding `CCC[C@@]1(O)C(C)OCC(O)C1O` (stereo partly drawn) [1-deoxy-4(S)—C-(propyl) L-fucose], the IC50 in test [1] was determined as 0.66 ± 0.09 µM; in test [2] it was 230 ± 50 nM.

For `Cc1ccc(S(=O)(=O)NC[C@H]2OC(C)[C@@H](O)C(O)C2O)s1` (some centres unmarked), the results for the IC50 in test [1] and in test [2] were 3.49 ± 0.21 µM and 650 ± 350 nM, respectively.

Turning to `CC1OCC(O)C(O)[C@@]1(O)C1CCCCC1` (stereo partly drawn) [1-deoxy-4(S)—C-(cyclohexyl) L-fucose], the IC50 in test [1] was found to be 2.59 ± 0.09 µM; in test [2], 750 ± 130 nM.

On to `CC(=O)N[C@H]1C(O)O[C@H](CO)[C@@H](O[C@@H]2O[C@@H](C)[C@@H](O)[C@@H](O)[C@@H]2O)[C@@H]1O[C@@H]1O[C@H](CO)[C@H](O)[C@H](O)[C@H]1O` (stereo partly drawn) [Lewis^a trisaccharide, α-Fuc1-4((βGal1-3)-GlcNAc], for which the equilibrium dissociation constant (Kd) in test [5] is 210 nM.

For `CC1OCC(O)C(O)[C@@]1(O)CC#N` (stereo partly drawn) [1-deoxy-4(S)—C-(cyanomethyl) L-fucose], the IC50 in test [1] turned out to be 1.69 ± 0.15 µM; in test [2], 580 ± 110 nM.

For `CCC1(O)C(O)COC(C)[C@H]1O` (stereo partly drawn) [1-deoxy-3(S)—C-(ethyl)-L-fucose], the IC50 in test [1] is 471 ± 104 µM; in test [2], 41500 ± 9940 nM.

The record behind these values is patent publication US10407398B2, “Inhibitors of Pseudomonas aeruginosa LecB” (priority 2015, dated 2019).
